The SangsterLogP compilation
Peptide text beside a SMILES is read from it. * marks the point of attachment. NHtBu = CC(C)(C)N*

Key:
[1] = method code SF-AS, from DOI: 10.1016/0223-5234(94)90063-9; conditions: pH 2.0
[2] = method code SF-RC, from DOI: 10.1023/a:1015892313856, PMID: 1495896
[3] = method code SF, from DOI: 10.1016/0378-5173(90)90261-2; conditions: pH 3.0
[4] = not given; remark: listed apart in the source
[5] = not given; remark: listed apart in the source
[6] = method code SF-HPLC, from DOI: 10.1016/0378-5173(88)90064-6; conditions: pH 7.4
[7] = method code SF-AS, from Falk, M.; Luecke, L. (1989). Transport of substances through lipid membranes. 11. Effect of esterification on the dissociation and permeation of orotic acid. Pharmazie, 44(9)647.; conditions: pH 1.2
[8] = method code SF-HPLC, from Yu, G.; Xu, X. (1993). Determination of the 1-octanol/water partition coefficient of nitro-PAHs. Huanjing Huaxue, 12(4)299-303.
[9] = not given; remark: listed apart in the source
[10] = method code SF-HPLC, from DOI: 10.1023/a:1018903407592, PMID: 8165182; conditions: pH 7.4
[11] = method code SF-AS, from DOI: 10.1021/jm00395a009, PMID: 3681892; conditions: pH 7.4
[12] = method code SF-HPLC, from DOI: 10.1002/jps.10072, PMID: 11920751; conditions: pH 7.4
[13] = not given; remark: listed apart in the source
[14] = method code SF-AS, from DOI: 10.1016/s0969-8051(99)00063-3, PMID: 10628565; conditions: pH 7.0
[15] = not given; remark: listed apart in the source
[16] = method code SF, from DOI: 10.1248/cpb.39.1346, PMID: 1914012
[17] = method code SF-AS, from DOI: 10.1016/0378-5173(86)90115-8
[18] = method code SF, from DOI: 10.1021/jm200015a, PMID: 21630666; conditions: pH 7.4
[19] = not given; remark: listed apart in the source
[20] = method code SF-RC, from DOI: 10.1002/ps.2780410303; conditions: pH 1.8

For `Cn1c(CC(=O)O)cnc1C(=O)c1ccc([N+](=O)[O-])cc1`, which logD [1] is on record?
The logD was 0.86.

With `CC(=O)N[C@@H](C)C(=O)NCC(=O)NC(C)(C)C` as the compound, how does the logD ([2]; pH 7.2) read?
The logD was -0.6.

Which logD [3] does the source give for `O=C(O)CCCCCCc1ccccc1` here?
The logD was 3.63.

For `Clc1cc2c(oc3cc(Cl)c(Cl)c(Cl)c32)c(Cl)c1Cl`, which logP is on record?
Its logP is 6.6.

With `Cn1c(CC(=O)O)cnc1C(=O)c1ccc(Cl)cc1` as the compound, how does the logD [1] read?
The logD was 1.17.

With `Cc1cc(I)cc(CN(C)CCCN(C)C)c1O` as the compound, how does the logP [4] read?
Its logP is 2.2.

For `S=c1ssc(-c2ccccc2)c1-c1ccccc1`, which logP [5] is on record?
The logP was 4.2.

With `CC(=O)c1ccc2cc(C(C)C(=O)OCC(=O)N(C)CCO)ccc2c1` (centres undefined) as the compound, how does the logD [6] read?
The logD was 2.01.

For `CCCCCCCOC(=O)c1cc(=O)[nH]c(=O)[nH]1`, which logD [7] is on record?
The logD was 2.15.

Which logP [8] does the source give for `O=[N+]([O-])c1c2ccccc2cc2ccccc12` here?
Its logP is 4.21.

Which logP [9] does the source give for `CC(=O)c1cccc(Nc2ccccc2C(=O)O)c1` here?
The logP was 4.07.

With `CC12CCC(c3c1ssc3=S)C2(C)C` (centres undefined) as the compound, how does the logP [5] read?
The logP was 3.7.

Which logP [4] does the source give for `CC(C)NC(C)Cc1ccc(I)cc1` (centres undefined) here?
Its logP is 1.6.

Which logD [10] does the source give for `CCCCC(=O)OCCOCn1cnc2c(=O)[nH]c(N)nc21` here?
The logD was 0.37.

For `O=c1ccn(C2OC(CO)C(O)C2O)c(=O)n1Cc1ccccc1` (centres undefined), which logD [11] is on record?
The logD was 0.33.

For `CCCCC(=O)OCC(CO)OCn1cnc2c(=O)[nH]c(N)nc21` (centres undefined), which logD [12] is on record?
The logD was -0.07.

Which logP [5] does the source give for `S=c1ssc2c1CCCCCCCCCCCCC2` here?
The logP was 7.18.

For `CC(=O)NC(C)C(=O)NC(CCC(N)=O)C(=O)NC(C)C(=O)NC(C)(C)C` (stereo not drawn) (Ac-Ala-Gln-Ala-NHtBu; configuration not given here), which logD ([2]; pH 2.0) is on record?
Its logD is -0.67.

With `O=C(O)CCCCCc1ccccc1` as the compound, how does the logD [3] read?
Its logD is 3.27.

Which logD ([2]; pH 2.0) does the source give for `CC(=O)NC(C)C(=O)NC(CC(=O)O)C(=O)NC(C)(C)C` (stereo not drawn) (Ac-Ala-Asp-NHtBu; configuration not given here) here?
The logD was -0.74.

For `CC1=C(C)C(O)N(c2ccc(C(F)(F)F)c(Cl)c2)C1=O` (centres undefined), which logP [13] is on record?
The logP was 3.53.

Which logD [14] does the source give for `O=c1[nH]c(Nc2ccccc2)nc2c1ncn2CCO` here?
Its logD is 0.83.

For `Clc1cc2oc3c(Cl)c(Cl)c(Cl)c(Cl)c3c2cc1Cl`, which logP is on record?
Its logP is 6.6.

Which logP [15] does the source give for `Clc1cc(Cl)c2oc3c(Cl)cc(Cl)c(Cl)c3c2c1Cl` here?
The logP was 7.65.

Which logD [7] does the source give for `CCCCCCCCCOC(=O)c1cc(=O)[nH]c(=O)[nH]1` here?
The logD was 2.41.

Which logP [16] does the source give for `CC1(C)[C@@H](O[C@H]2O[C@H](C(=O)O)[C@@H](O)[C@H](O)[C@H]2O[C@@H]2O[C@H](C(=O)O)[C@@H](O)[C@H](O)[C@H]2O)CC[C@@]2(C)[C@@H]3C(=O)C=C4[C@H]5C[C@@](C)(C(=O)O)CC[C@@]5(C)CC[C@@]4(C)C3(C)CC[C@@H]12` (some centres undefined) here?
Its logP is 2.8.

Which logD [12] does the source give for `CCC(=O)OCC(CO)OCn1cnc2c(=O)[nH]c(N)nc21` (centres undefined) here?
The logD was -0.92.

With `O=[N+]([O-])c1ccc2ccc3cccc4ccc1c2c34` as the compound, how does the logP [8] read?
Its logP is 5.06.

With `CN(C(=O)CCC#N)c1ccc(S(=O)(=O)N(C)C)cc1` as the compound, how does the logP [17] read?
Its logP is -0.17.

Which logD [18] does the source give for `Cc1cc(-c2ccc(OC(F)(F)F)cc2)ccc1-c1ccc2[nH]c3c(c(=O)c2c1)CSCC3` here?
Its logD is 3.6.

Which logD [18] does the source give for `O=c1c2c([nH]c3cc(-c4ccc(-c5ccc(OC(F)(F)F)cc5)cc4)ccc13)CCCC2` here?
Its logD is 3.8.

Which logD [7] does the source give for `CCCCCCCCOC(=O)c1cc(=O)[nH]c(=O)[nH]1` here?
Its logD is 2.6.

For `COCCn1cnc2c(=O)[nH]c(Nc3ccccc3)nc21`, which logD [14] is on record?
The logD was 1.2.

For `CC1(C(=O)O)CCC2(C)CCC3(C)C(=CC(=O)C4C5(C)CCC(O)C(C)(C)C5CCC43C)C2C1` (centres undefined), which logP [16] is on record?
Its logP is 4.77.

With `Clc1cc(Cl)c2oc3c(Cl)c(Cl)c(Cl)c(Cl)c3c2c1` as the compound, how does the logP [15] read?
The logP was 7.58.

For `CC(=O)OCC(CO)OCn1cnc2c(=O)[nH]c(N)nc21` (centres undefined), which logD [12] is on record?
Its logD is -1.08.

With `CC(=O)NC(CCC(=O)O)C(=O)Nc1nnc(-c2cccc(Cl)c2Cl)c(N)n1` (centres undefined) as the compound, how does the logP [19] read?
The logP was 1.6.

For `CCCC(=O)OCCOCn1cnc2c(=O)[nH]c(N)nc21`, which logD [10] is on record?
The logD was -0.08.

With `CC(C)C1(C)N=C(c2ncc(Br)cc2C(=O)O)NC1=O` (centres undefined) as the compound, how does the logD [20] read?
The logD was 1.19.
